Assay [1] deals with primary mouse hepatocytes. Put plainly: In vitro glucose production, VPC and lipolysis in isolated hepatocytes. The assay is classed as cell-based. Conditions: for glucagon-stimulated VPC flux / glucagon-stimulated glucose production: WT hepatocytes, 100 nM glucagon, 8 hr; for effect of glucagon to stimulate intrahepatic lipolysis: isolated hepatocytes. Here is the method:
For in vitro glucose production and lipolysis studies, primary mouse hepatocytes were isolated by the Yale Liver Center. Following removal of cell debris by Percoll density gradient centrifugation, cells were plated on 6-well collagen-I coated dishes (4.0×10^5 cells/well) in 2 ml recovery media (DMEM High Glucose containing 10% FBS, 2% penicillin-streptomycin, 100 nM dexamethasone, 1 nM insulin, and 10 mM HEPES). After incubation for 6 hr at 37° C. and 5% CO2, the attached cells were washed once in 1×PBS and then incubated overnight in 2 ml Low Glucose Culture Media (DMEM Low Glucose supplemented with 10% FBS, 2% penicillin-streptomycin and 10 mM HEPES for glucose production studies) or Serum Free Low Glucose Culture Media (DMEM Low Glucose supplemented with 0.5% fatty acid free BSA, 2% penicillin-streptomycin and 10 mM HEPES for lipolysis assays). […] After incubation for 8 hr at 37° C. and 5% CO2, cell culture media was collected for analysis of glucose, NEFA, and glycerol concentrations as described above. VPC was determined by measuring VPC/VEGP by PINTA as described above using 300 μL of the collected media, and multiplying this ratio by the measured glucose production rate. In a subset of studies, cells were incubated for 8 hr during the glucose production assay in media containing one of the following agents (all dissolved in 0.5% DMSO), or 0.5% DMSO vehicle: 20 μM ET-18-OCH3 (Santa Cruz), 100 μM U-73122 (Sigma), 30 nM thapsigargin (Sigma), 100 nM vasopressin (Sigma) 50 μM 2-APB (R&D Systems), 70 μM caffeine (Sigma), 1 mM malic enzyme inhibitor hydroxymalonate (Sigma). To inhibit PKA, hepatocytes were incubated in H-89 […] hydrate (Sigma, 25 μM) dissolved in media, or media lacking H-89 as a control. In the insulin treatment studies, hepatocytes were incubated in 1 nM insulin with 5% BSA and glucose production media for the duration of the glucose production assay. In the in vitro atglistatin study, hepatocytes were incubated in 10 μM atglistatin in 0.1% EtOH, or 0.1% EtOH vehicle. All values were normalized to total protein content determined from whole-cell lysates by a BCA protein assay (Thermo Fisher Scientific) according to the manufacturer's instructions and expressed as fold change verses vehicle-treated cells.

The target of a further assay is T1, glycogen phosphorylase (Rattus norvegicus, UniProt P09811).
T1 construct: from tissue; host or cells: live rat, in vivo (IV dosing); liver is the tissue discussed
T1 sequence (P09811 1-850): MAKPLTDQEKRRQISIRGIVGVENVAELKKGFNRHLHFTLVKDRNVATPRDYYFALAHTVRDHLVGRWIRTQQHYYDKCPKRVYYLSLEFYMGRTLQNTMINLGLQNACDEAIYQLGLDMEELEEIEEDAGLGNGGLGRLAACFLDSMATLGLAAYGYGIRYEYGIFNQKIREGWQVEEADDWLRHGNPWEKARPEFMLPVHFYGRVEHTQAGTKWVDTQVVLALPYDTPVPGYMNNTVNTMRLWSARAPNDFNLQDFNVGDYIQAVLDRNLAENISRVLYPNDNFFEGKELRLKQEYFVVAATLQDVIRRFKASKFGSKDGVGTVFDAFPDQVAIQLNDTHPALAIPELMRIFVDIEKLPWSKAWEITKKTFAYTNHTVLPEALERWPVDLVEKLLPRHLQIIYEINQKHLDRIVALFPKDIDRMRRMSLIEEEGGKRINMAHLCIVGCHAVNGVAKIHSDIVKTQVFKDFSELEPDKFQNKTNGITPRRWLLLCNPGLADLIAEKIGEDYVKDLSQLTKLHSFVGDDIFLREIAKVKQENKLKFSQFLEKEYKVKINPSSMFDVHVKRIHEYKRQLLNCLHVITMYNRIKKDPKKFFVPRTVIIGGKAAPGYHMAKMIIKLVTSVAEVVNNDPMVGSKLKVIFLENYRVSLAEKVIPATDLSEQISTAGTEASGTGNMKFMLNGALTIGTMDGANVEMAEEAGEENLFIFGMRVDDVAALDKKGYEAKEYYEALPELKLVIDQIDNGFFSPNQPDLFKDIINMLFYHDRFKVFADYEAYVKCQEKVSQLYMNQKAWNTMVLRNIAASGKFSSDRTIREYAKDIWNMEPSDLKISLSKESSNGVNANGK
Put plainly: Glycogen phosphorylase inhibitor in 8, 16 and 48 hr fasted rats. The assay is classed as in vivo. To be noted: for reduction in rates of endogenous glucose production: 5 mg/kg IV, 2 hr. Here is the method:
8, 16, and 48 hr fasted rats were injected with a small molecule inhibitor of glycogen phosphorylase, 1-(3-(3-(2-Chloro-4,5-difluorobenzoyl) ureido)-4-methoxyphenyl)-3-methylurea (Sigma #361515; 5 mg/kg IV) and a tracer infusion of [2,3,3,3-^2H4]alanine ([…]prime for 5 min and […] continuous) and [3-^3H]glucose (0.3 μCi/min prime for 5 min and 0.3 μCi/min continuous) as well as [^13C4] β-hydroxybutyrate, [1,1,2,3,3-^2H5]glycerol, and [^13C16]palmitate at the rates listed in Table 9, for 120 min. Blood samples were obtained before (time zero) and 120 min after treatment with the glycogen phosphorylase inhibitor for measurement of turnover rates and plasma hormone/substrate concentrations. Hepatic acetyl-CoA content was altered by treatment with a CPT-1 inhibitor (etomoxir, 8 mg/kg) or an ATGL inhibitor (atglistatin, […]) in 0, 6, 16, and 48 hr fasted rats. Both agents were solubilized by suspending the drug in 4% ethanol/96% normal saline, heating to 60° C., and sonicating, and were cooled to room temperature before they were injected intraperitoneally. […] In these animals plasma glucose concentrations were measured every 15 minutes and a variable infusion of 20% glucose (Pfizer Hospira, Lake Forest, Ill.) was used to maintain plasma glucose concentrations ˜3.6-3.7 mM. The physiologic role of glucocorticoids was assessed in 6 and 48 hr fasted rats by treatment with a glucocorticoid receptor antagonist, mifepristone. Following a 2 hr tracer infusion at the rates described above to assess fatty acid, glycerol, glucose, and β-hydroxybutyrate turnover, rats were injected with mifepristone (40 mg/kg) IV. The tracer infusion was continued and the tracer of each of the above substrates was again measured 2 hr after treatment with mifepristone.
All whole-body substrate turnover rates were calculated using the equation Turnover=([Tracer APE/Plasma APE]−1)*Infusion rate, where APE designates the atom percent enrichment measured by mass spectrometry as described below (Biochemical Analysis). All chemicals used for flux analysis were obtained from SIGMA. Turnover of glucose, glycerol, and β-hydroxybutyrate were determined by gas chromatography-mass spectrometry (GC-MS). Briefly, both glucose and glycerol were deprotonized with 5 volumes of methanol, derivitized with 3 volumes of 1:1 acetic anhydride:pyridine, heated to 65° C. for 20 min, and 1 volume of methanol was added, then GC-MS was used in CI mode to measure glucose enrichment and EI mode to measure glycerol enrichment, with turnover calculated using the equation above. β-Hydroxybutyrate was deprotonized with 5 volumes of methanol and derivitized with 3 volumes of n-butanol 4N HCl, after which the samples were heated to 65° C. for 60 min, evaporated under N2 gas, and re-suspended in […] of trifluoroacetic acid:methylene chloride (1:7). Fatty acid turnover was measured by determining the plasma palmitate enrichment by GC-MS. Samples were prepared for measurements of palmitate enrichment by evaporating […] plasma, dissolving in […] 1:1 chloroform:methanol and derivitizing with […] boron trifluoride/methanol, then heating to 100° C. for 5 min, adding 2 mL pentane and 1 mL water, and centrifuging at low speed for 5 min. […] Alanine turnover was determined in rats infused with [2,3,3,3-^2H4]alanine by preparing samples to measure alanine enrichment by GC/MS (CI mode) using the same protocol as was employed to measure β-hydroxybutyrate enrichment.

Where [2] appears, read: short-term fasted rats (8 and 16 hr).

The values that follow come from patent US11484608B2, “Non-invasive assessment of hepatic mitochondrial metabolism by positional isotopomer NMR tracer analysis (PINTA)” (YALE UNIVERSITY, priority 2017, dated 2022).

As to `C/C=C(/C)C(=O)O[C@H]1C(C)=C2[C@H]([C@@H]1OC(=O)CCCCCCC)[C@@](C)(OC(C)=O)C[C@H](OC(=O)CCC)[C@@]1(O)[C@H]2OC(=O)[C@@]1(C)O` [thapsigargin], in assay [1], the “glucagon-stimulated VPC flux” value is “inhibited”, the glucagon-stimulated glucose production result is given as “inhibited” and the “effect of glucagon to stimulate intrahepatic lipolysis” value (shortened to “effect of glucagon”) is “abrogated”.
Turning to `Cn1c(=O)c2c(ncn2C)n(C)c1=O` [caffeine], in assay [1], the “glucagon-stimulated VPC flux” value is “inhibited”, the glucagon-stimulated glucose production entry is listed as “inhibited” and the “effect of glucagon” value was “abrogated”.
For `COc1ccc2c(c1)CC[C@@H]1[C@@H]2CC[C@]2(C)[C@@H](NCCCCCCN3C(=O)C=CC3=O)CC[C@@H]12` [U-73122], in assay [1], the “glucagon-stimulated VPC flux” value was “inhibited”, the glucagon-stimulated glucose production entry was “inhibited” and the “effect of glucagon” value was “abrogated”.
In the case of `CCCCCCCCCCCCCCCCCCOCC(COP(=O)([O-])OCC[N+](C)(C)C)OC` (stereo not drawn) [ET-18-OCH3], in assay [1], the “glucagon-stimulated VPC flux” value is on record as “inhibited”, the glucagon-stimulated glucose production result is on record as “inhibited” and the “effect of glucagon” value is recorded as “abrogated”.
Regarding `NCCOB(c1ccccc1)c1ccccc1` [2-APB, 2-aminoethoxydiphenyl borate], in assay [1], the “glucagon-stimulated VPC flux” value was “inhibited”, the glucagon-stimulated glucose production entry is given as “inhibited” and the “effect of glucagon” value was “abrogated”.
Consider `CNC(=O)Nc1ccc(OC)c(NC(=O)NC(=O)c2cc(F)c(F)cc2Cl)c1` [glycogen phosphorylase inhibitor, 1-(3-(3-(2-Chloro-4,5-difluorobenzoyl)ureido)-4-methoxyphenyl)-3-methylurea], for which, on glycogen phosphorylase (8- and 16-hr fasted rats), the “plasma ACTH concentrations” value is given as “increases”, the plasma corticosterone concentrations entry is on record as “increases” and the plasma leptin concentrations result is recorded as “reductions”. Moreover, the “reduction in rates of endogenous glucose production” value at glycogen phosphorylase (8-hr fasted rats) came out at 60%. The “plasma FGF-21 concentrations” value on glycogen phosphorylase (8 and 16-hr fasted rats) is on record as “increased”. For the same molecule, on glycogen phosphorylase (8 and 16 hr fasted rats), the plasma glucose concentrations result is on record as “lowered”, the plasma insulin concentrations entry is on record as “lowered”, the plasma lactate concentrations entry was “lowered” and the whole-body glucose turnover result is on record as “lowered”. In addition, the “reduction in rates of endogenous glucose production” value on glycogen phosphorylase (16-hr fasted rats) is reported as 30%. For the same molecule, on glycogen phosphorylase (48-hr fasted rats), the “plasma glucose, lactate, and insulin concentrations and whole-body glucose turnover” value is reported as “not in the 48-hr fasted rats”; the “rates of endogenous glucose production” value is reported as “no difference”. Also, on glycogen phosphorylase (fasted rats), the “plasma glucagon and catecholamine concentrations” value is “not altered”. Moreover, at glycogen phosphorylase (setting [2]), the “rates of WAT lipolysis” value is “increased” and the “rates of alanine turnover” value was “decreased”.
For the molecule `COc1ccc(S(=O)(=O)N(CCO)c2ccccc2CN(C)C/C=C/c2ccc(Cl)cc2)cc1` [KN-93], in assay [1], the glucagon-stimulated glucose production result is given as “abrogated” and the “effect of glucagon” value is “abrogated”.
Take insulin: the “glucose production and VPC flux” value in assay [1] (isolated hepatocytes with insulin, unaltered in InsP3R-I KO) is recorded as “suppress”.
